Consider three compounds from patent US20140088027A1, “PHARMACEUTICAL COMPOSITION COMPRISING AN SGLT2 INHIBITOR AND A PPAR- GAMMA AGONIST AND USES THEREOF” (BOEHRINGER INGELHEIM INTERNATIONAL GMBH, priority 2010, published 2014).

The conditions of experiment [1]: metformin on its own, in the diabetic; cited from earlier work.
The test system of experiment [2] is Zucker diabetic fatty rats (ZDF/Crl-Lepr^fa). Description: Blood glucose time course in male Zucker diabetic fatty rats. It counts as in vivo, rat. The settings on record: freely fed, 2 h after dosing, two weeks once daily po, Cpd. A 1 mg/kg, pioglitazone 10 mg/kg. The source says: The SGLT2 inhibitor is the glucopyranosyl-substituted benzene derivative described as compound (I.9) hereinabove and referred to as “Cpd. A” in the following. The PPARγ agonist is pioglitazone. All experimental protocols concerning the use of laboratory animals were reviewed by a federal Ethics Committee and approved by governmental authorities. The time course of blood glucose was followed over a treatment period of 2 weeks in male Zucker diabetic fatty rats (ZDF/Crl-Lepr^fa) with an age of 10 weeks at the start of the study. A pre-dose blood sample was obtained by tail bleed (day 0) and blood glucose was measured with a glucometer. From day 1 to day 15, the animals (n=5/group) received once daily oral administrations of either vehicle alone (0.5% aqueous hydroxyethylcellulose) or this vehicle containing either Cpd. A or pioglitazone or the combination of the Cpd. A with pioglitazone. Blood glucose was measured in tail blood 2 h after dosing in freely fed animals. The data are presented as mean±S.E.M. Statistical comparison was conducted by repeated measures two-way ANOVA followed by Bonferroni post tests for group-wise comparisons. A p value <0.05 was considered to show a statistically significant difference.
Cpd. A is Cpd. A described as compound (I.9) hereinabove at a dose of 1 mg/kg. Pioglitazone was dosed at 10 mg/kg. Combination Cpd. […]

Experiment [3] can be described thus: Body weight in cafeteria-diet obese female Wistar rats. The following applies: obese female Wistar rats on cafeteria diet, 28 day treatment. It counts as in vivo, rat. As to the method:
(§1) An animal model of obesity was used to study the effect of Cpd. A, Pioglitazone or the combination of Cpd. A with Pioglitazone on body weight and total body fat content. For this, female Wistar rats were made obese by exposure to a simplified cafeteria diet containing high fat chow, chocolate and ground peanuts for approximately 19 weeks. Following the induction of obesity, rats were given vehicle (0.5% aqueous hydroxyethylcellulose) for 7 days and were then dosed orally once-daily with either vehicle, 10 mg/kg Cpd. A, 10 mg/kg Pioglitazone, or the combination of Cpd. A and Pioglitazone for 29 days. For the duration of the study rats were maintained on cafeteria diet.
In FIG. 1, results are mean body weights (adjusted for differences between the body weights of the different treatment groups at baseline (Day 1))±SEM (calculated from the residuals of the statistical model), n=10) after 28 day once-daily oral treatment with the glucopyranosyl-substituted benzene derivative (Cpd. A), Pioglitazone or the combination of both Cpd. A and Pioglitazone at the indicated doses.
Body weight data were analyzed by unpaired t-test. […] Combination of Cpd.

Experiment [4] is described as follows: Body composition (FoodScan NIR) in cafeteria-diet obese female Wistar rats. It counts as in vivo, rat. The following applies: 10 mg/kg po once daily, carcass analysis at Day 31. As for the experimental part: as §1
At the end of the study on Day 31 (24 hours after the last treatment on Day 30) all rats were terminated, the body exsanguinated and the following tissues removed: the caudate liver lobe, the pancreas, the kidneys. Body composition (body fat, protein and water) was determined using the FoodScan NIR (near infra-red) meat analyser (Foss UK). This machine has AOAC (Association of Official Analytical Chemists) approval as reference method for the analysis of moisture, fat and protein in meat. The carcasses were milled under liquid nitrogen and a portion of the milled carcass was analysed in the FoodScan Analyser.
Results are the percentage reduction in each parameter when compared to control and presented along with the corresponding percentage reduction in carcass weight compared to the vehicle-treated control group. Body composition (body fat, protein and water) was determined using the FoodScan NIR (near infra-red) meat analyser (Foss UK).

Experiment [5] in a line: Plasma insulin in cafeteria-diet obese female Wistar rats. It counts as in vivo, rat. The following applies: fed, 10 mg/kg po once daily each, after 28/29 days. As to the method: as §1
After 28 days of treatment, blood samples were collected from the tail vein (from fed animals) for analysis of insulin. Plasma insulin values were determined by using a Millipore Luminex RENDO 85K kit.
In FIG. 2, results are mean plasma insulin levels±SEM after 29 days of once-daily oral treatment with the glucopyranosyl-substituted benzene derivative (Cpd. A), Pioglitazone or the combination of both Cpd. A and Pioglitazone at the indicated doses. Plasma insulin values were analyzed by unpaired t-test. P values versus vehicle control are indicated by symbols above the bars (*, p<0.05; **, p<0.01; ***, p<0.001). […] Combination of Cpd.

Turning to `CN(C)C(=N)N=C(N)N` [metformin], the “average improvement in the HbA1c value” in experiment [1] is given as 1.0-1.5%.

Regarding `CCc1ccc(CCOc2ccc(CC3SC(=O)NC3=O)cc2)nc1` (centres unmarked) [Pioglitazone, pioglitazone], the “reduction of blood glucose” value in experiment [2] stood at 48%. The “increase of body weight compared to vehicle-treated control animals” value in experiment [3] (10 mg/kg po once daily each) was 6.8%. Besides, in experiment [4], the “Carcass weight (%), percentage reduction compared to vehicle-treated control” value is listed as 6.2%; the “Fat (%), percentage reduction compared to control” value is listed as 15.4%; the “Protein (%), percentage reduction compared to control” value is on record as 1.1%; the “Water (%), percentage reduction compared to control” value is 3.6%.

With `OC[C@H]1O[C@@H](c2ccc(Cl)c(Cc3ccc(O[C@H]4CCOC4)cc3)c2)[C@H](O)[C@@H](O)[C@@H]1O` [Cpd. A], in experiment [5], the “plasma insulin levels versus vehicle control” value is recorded as “reduced the plasma insulin levels significantly”. For the same compound, the “reduction of blood glucose” value in experiment [2] is 37%. The “reduction of body weight compared to vehicle-treated control” value in experiment [3] (10 mg/kg po once daily) came out at 3.1%. Also, in experiment [4], the “Carcass weight (%), percentage reduction compared to vehicle-treated control” value was −3.5%; the “Fat (%), percentage reduction compared to control” value is listed as −4.5%; the “Protein (%), percentage reduction compared to control” value is listed as −1.5%; the “Water (%), percentage reduction compared to control” value is listed as −0.3%.
